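At the GI50, growth is halved. TGI marks complete inhibition of growth.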
How the values were obtained:
Assay in all cases: DTP human tumour cell line panel, 384-well format
NCI-H460 NSCLC = system: NCI-H460 NSCLC
NCI-H23 lung = system: NCI-H23 lung
HCC-2998 colon = system: HCC-2998 colon
OVCAR-5 ovarian = system: OVCAR-5 ovarian
OVCAR-8 ovarian = system: OVCAR-8 ovarian
SK-MEL-5 melanoma = system: SK-MEL-5 melanoma
SK-MEL-28 melanoma = system: SK-MEL-28 melanoma
SK-MEL-2 melanoma = system: SK-MEL-2 melanoma
TK-10 renal = system: TK-10 renal
BT-549 breast = system: BT-549 breast
ACHN renal = system: ACHN renal
T-47D breast = system: T-47D breast
OVCAR-3 ovarian = system: OVCAR-3 ovarian
EKVX NSCLC = system: EKVX NSCLC
786-0 renal = system: 786-0 renal
COLO 205 colon = system: COLO 205 colon
A498 renal = system: A498 renal
SF-268 CNS = system: SF-268 CNS
UACC-62 melanoma = system: UACC-62 melanoma
HS 578T breast = system: HS 578T breast
CCRF-CEM leukemia = system: CCRF-CEM leukemia
MDA-MB-231 breast = system: MDA-MB-231 breast
A549 NSCLC = system: A549 NSCLC
MCF7 breast = system: MCF7 breast
NCI-H226 lung = system: NCI-H226 lung
OVCAR-4 ovarian = system: OVCAR-4 ovarian
KM12 colon = system: KM12 colon
IGROV1 ovarian = system: IGROV1 ovarian
K-562 leukemia = system: K-562 leukemia
HCT-15 colon = system: HCT-15 colon
PC-3 prostate = system: PC-3 prostate
SN12C renal = system: SN12C renal
SF-295 CNS = system: SF-295 CNS
HOP-62 NSCLC = system: HOP-62 NSCLC
LOX IMVI melanoma = system: LOX IMVI melanoma
HCT-116 colon = system: HCT-116 colon
NCI-H322M lung = system: NCI-H322M lung
SK-OV-3 ovarian = system: SK-OV-3 ovarian
M14 melanoma = system: M14 melanoma
UO-31 renal = system: UO-31 renal
HT29 colon = system: HT29 colon
HOP-92 NSCLC = system: HOP-92 NSCLC
SNB-19 CNS = system: SNB-19 CNS
NCI-H522 lung = system: NCI-H522 lung
MALME-3M melanoma = system: MALME-3M melanoma
SR leukemia = system: SR leukemia
SNB-75 CNS = system: SNB-75 CNS
UACC-257 melanoma = system: UACC-257 melanoma
SW-620 colon = system: SW-620 colon
MDA-MB-435 melanoma = system: MDA-MB-435 melanoma
U251 glioblastoma = system: U251 glioblastoma
RXF 393 renal = system: RXF 393 renal
MDA-MB-468 breast = system: MDA-MB-468 breast
NCI/ADR-RES ovarian = system: NCI/ADR-RES ovarian
CAKI-1 renal = system: CAKI-1 renal
SF-539 CNS = system: SF-539 CNS
MOLT-4 leukemia = system: MOLT-4 leukemia
DU-145 prostate = system: DU-145 prostate
HL-60(TB) leukemia = system: HL-60(TB) leukemia

For `Cc1nc(N2CCC3(CC2)CO[C@@H](C)[C@H]3N)c(CO)nc1Sc1ccnc(N)c1Cl`, the GI50 (NCI-H460 NSCLC) was 41.8 µM, the TGI (NCI-H460 NSCLC) was over 100 µM and the GI50 (NCI-H23 lung) was 0.0838 µM. For the same compound, the TGI (NCI-H23 lung) was 20.6 µM, the GI50 (HCC-2998 colon) was 35.5 µM and the TGI (HCC-2998 colon) was 95 µM. The GI50 (OVCAR-5 ovarian) was 92.7 µM, the TGI (OVCAR-5 ovarian) was over 100 µM and the GI50 (OVCAR-8 ovarian) was 17.2 µM. The TGI (OVCAR-8 ovarian) was 50.5 µM, the GI50 (SK-MEL-5 melanoma) was 16 µM and the TGI (SK-MEL-5 melanoma) was 31.3 µM. For the same compound, the GI50 (SK-MEL-28 melanoma) was 40.1 µM, the TGI (SK-MEL-28 melanoma) was over 100 µM and the GI50 (SK-MEL-2 melanoma) was 34.7 µM. For the same compound, the TGI (SK-MEL-2 melanoma) was 78.1 µM, the GI50 (TK-10 renal) was 0.819 µM and the TGI (TK-10 renal) was over 100 µM. The GI50 (BT-549 breast) was 17 µM, the TGI (BT-549 breast) was over 100 µM and the GI50 (ACHN renal) was 2.03 µM. For the same compound, the TGI (ACHN renal) was over 100 µM, the GI50 (T-47D breast) was 17.5 µM and the TGI (T-47D breast) was 82.2 µM. It also gave a GI50 (OVCAR-3 ovarian) of 35.8 µM, a TGI (OVCAR-3 ovarian) of over 100 µM and a GI50 (EKVX NSCLC) of 3.13 µM. The TGI (EKVX NSCLC) was 92.3 µM, the GI50 ([…]-0 renal) was 29.3 µM and the TGI (786-0 renal) was over 100 µM. For the same compound, the GI50 (COLO 205 colon) was 41.8 µM, the TGI (COLO 205 colon) was over 100 µM and the GI50 (A498 renal) was 1.08 µM. For the same compound, the TGI (A498 renal) was over 100 µM, the GI50 (SF-268 CNS) was 91.6 µM and the TGI (SF-268 CNS) was over 100 µM. For the same compound, the GI50 (UACC-62 melanoma) was 31.4 µM, the TGI (UACC-62 melanoma) was over 100 µM and the GI50 (HS 578T breast) was 39.4 µM. It also gave a TGI (HS 578T breast) of over 100 µM, a GI50 (CCRF-CEM leukemia) of 24.5 µM and a TGI (CCRF-CEM leukemia) of 60.2 µM. The GI50 (MDA-MB-231 breast) was over 100 µM, the TGI (MDA-MB-231 breast) was over 100 µM and the GI50 (A549 NSCLC) was 97 µM. The TGI (A549 NSCLC) was over 100 µM, the GI50 (MCF7 breast) was 35.1 µM and the TGI (MCF7 breast) was over 100 µM. For the same compound, the GI50 (NCI-H226 lung) was 0.714 µM, the TGI (NCI-H226 lung) was over 100 µM and the GI50 (OVCAR-4 ovarian) was 46.6 µM. It also gave a TGI (OVCAR-4 ovarian) of over 100 µM, a GI50 (KM12 colon) of 0.321 µM and a TGI (KM12 colon) of over 100 µM. The GI50 (IGROV1 ovarian) was 0.728 µM, the TGI (IGROV1 ovarian) was over 100 µM and the GI50 (K-562 leukemia) was 0.0619 µM. The TGI (K-562 leukemia) was 15.7 µM, the GI50 (HCT-15 colon) was 69.3 µM and the TGI (HCT-15 colon) was over 100 µM. The GI50 (PC-3 prostate) was 54.4 µM, the TGI (PC-3 prostate) was over 100 µM and the GI50 (SN12C renal) was 8.42 µM. The TGI (SN12C renal) was over 100 µM, the GI50 (SF-295 CNS) was 79.8 µM and the TGI (SF-295 CNS) was over 100 µM. For the same compound, the GI50 (HOP-62 NSCLC) was 54 µM, the TGI (HOP-62 NSCLC) was over 100 µM and the GI50 (LOX IMVI melanoma) was 35.5 µM. For the same compound, the TGI (LOX IMVI melanoma) was over 100 µM, the GI50 (HCT-116 colon) was 37.1 µM and the TGI (HCT-116 colon) was over 100 µM. For the same compound, the GI50 (NCI-H322M lung) was 0.166 µM, the TGI (NCI-H322M lung) was over 100 µM and the GI50 (SK-OV-3 ovarian) was 13 µM. The TGI (SK-OV-3 ovarian) was over 100 µM, the GI50 (M14 melanoma) was 21.3 µM and the TGI (M14 melanoma) was 42.6 µM. The GI50 (UO-31 renal) was 11 µM, the TGI (UO-31 renal) was over 100 µM and the GI50 (HT29 colon) was 27.5 µM. It also gave a TGI (HT29 colon) of 71.8 µM, a GI50 (HOP-92 NSCLC) of 0.115 µM and a TGI (HOP-92 NSCLC) of 12.4 µM. The GI50 (SNB-19 CNS) was 42.1 µM, the TGI (SNB-19 CNS) was over 100 µM and the GI50 (NCI-H522 lung) was 0.044 µM. It also gave a TGI (NCI-H522 lung) of 18.5 µM, a GI50 (MALME-3M melanoma) of 24.2 µM and a TGI (MALME-3M melanoma) of 54.2 µM. It also gave a GI50 (SR leukemia) of 9.08 µM, a TGI (SR leukemia) of 21.5 µM and a GI50 (SNB-75 CNS) of 13.4 µM. For the same compound, the TGI (SNB-75 CNS) was 94.4 µM, the GI50 (UACC-257 melanoma) was 19.3 µM and the TGI (UACC-257 melanoma) was 38.1 µM. It also gave a GI50 (SW-620 colon) of 54.6 µM, a TGI (SW-620 colon) of over 100 µM and a GI50 (MDA-MB-435 melanoma) of over 100 µM. For the same compound, the TGI (MDA-MB-435 melanoma) was over 100 µM, the GI50 (U251 glioblastoma) was 15.6 µM and the TGI (U251 glioblastoma) was over 100 µM. It also gave a GI50 (RXF 393 renal) of 12.5 µM, a TGI (RXF 393 renal) of 41.5 µM and a GI50 (MDA-MB-468 breast) of 0.145 µM. It also gave a TGI (MDA-MB-468 breast) of 1.39 µM, a GI50 (NCI/ADR-RES ovarian) of 17.7 µM and a TGI (NCI/ADR-RES ovarian) of over 100 µM. It also gave a GI50 (CAKI-1 renal) of 0.414 µM, a TGI (CAKI-1 renal) of over 100 µM and a GI50 (SF-539 CNS) of 22.1 µM. The TGI (SF-539 CNS) was over 100 µM, the GI50 (MOLT-4 leukemia) was 27 µM and the TGI (MOLT-4 leukemia) was over 100 µM. The GI50 (DU-145 prostate) was 97.5 µM, the TGI (DU-145 prostate) was over 100 µM and the GI50 (HL-60(TB) leukemia) was 15.8 µM. For the same compound, the TGI (HL-60(TB) leukemia) was 29.5 µM.

— PubChem BioAssay (NCI)
